In general, inhibition refers to the relative decrease from the control value, in per cent. A lower inhibition goes with little suppression.

Where two headings read alike, the source gives them in different places.

This assay deals with human 11b-hsd-1 (Homo sapiens, UniProt P28845). Put plainly: Inhibition constant Ki of human 11b-hsd-1 (3H-cortisone to 3H-cortisol conversion, HPLC). As to conditions: for Ki: apparent Ki, read-out: Ki app. The class given is biochemical.
Sequence of human 11b-hsd-1 (P28845 whole entry): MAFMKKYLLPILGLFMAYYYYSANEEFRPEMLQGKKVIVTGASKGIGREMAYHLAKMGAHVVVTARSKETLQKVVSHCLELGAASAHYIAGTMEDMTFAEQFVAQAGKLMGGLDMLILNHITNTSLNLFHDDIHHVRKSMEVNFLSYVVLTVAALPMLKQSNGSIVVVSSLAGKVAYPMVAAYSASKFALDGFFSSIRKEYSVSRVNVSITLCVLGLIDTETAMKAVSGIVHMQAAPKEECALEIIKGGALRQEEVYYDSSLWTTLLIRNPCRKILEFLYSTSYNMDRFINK

Method: In each well, varying amounts of compounds are incubated with a fixed amount of 11b-hsd-1 (4 nM) and NADPH (500 μM) for 30 to 40 min at room temperature in the assay buffer. The enzyme concentration was determined by titration using reversible tight-binding inhibitors. […] The area of 3H-cortisol is calculated and plotted versus time to determine a linear velocity. […] Where vi, and vo are the rates of cortisol formation in the presence and in the absence of inhibitor, respectively, I is the inhibitor concentration and E is the 11 b-hsd-1 concentration in the assay buffer. […] NADPH, Glucose-6-Phosphate (G6P), and Glucose-6-Phosphate dehydrogenase was purchased from Sigma.

Where the note is “compound at 0.1 μM”, `CC(C)CN1CCC[C@@H]1C(=O)NC1CCC(F)(F)CC1` [Example 136] came in with an inhibition at 0.1 µM of 100%.

For the setting “compound at 0.1 μM”, `CCCN1CCC[C@@H]1C(=O)NC1CCC(F)(F)CC1` [Example 137] gave an inhibition at 0.1 µM of 87%. `O=C(NC1C2CC3CC(C2)CC1C3)[C@H]1CCCN1C[C@H]1CCCN1` (stereo partly drawn) [Example 138] gave an inhibition at 0.1 µM (compound at 0.1 μM) of 100%. As to `CC(=O)N1CCC(CN2CCC[C@@H]2C(=O)NC2C3CC4CC(C3)CC2C4)CC1` (stereo partly drawn) [Example 139], the inhibition at 0.1 µM (compound at 0.1 μM) was 100%. Still for that read-out and setting: the value for `CS(=O)(=O)N1CCC(CN2CCC[C@@H]2C(=O)NC2C3CC4CC(C3)CC2C4)CC1` (stereo partly drawn) [Example 140] was 100%; that for `O=C(NC1C2CC3CC(C2)CC1C3)[C@H]1CCCN1C[C@@H]1CCCN1` (stereo partly drawn) [Example 141] was 76%; that for `O=C(NC1C2CC3CC(C2)CC1C3)[C@H]1CCCN1CC1CCNC1` (stereo partly drawn) [Example 142] was 100%. Still for that read-out and setting: the value for `CC12C3C4C1C1C2C3C41NC(=O)[C@H]1CCCN1` (stereo partly drawn) [Example 143] was 10%; that for `O=C(NC1C2CC3CC(C2)CC1C3)[C@H]1CCCN1CC1CCNCC1` (stereo partly drawn) [Example 144] was 87%. The same measure, in the same setting: the value for `C[C@@H](CN1CCC[C@@H]1C(=O)NC1C2CC3CC(C2)CC1C3)NC(=O)OC(C)(C)C` (stereo partly drawn) [Example 154] was 96%; that for `CC(C)(C)OC(=O)N1CCN(CC2CCCC2)[C@@H](C(=O)NC23CC4CC(CC(C4)C2)C3)C1` [Example 161] was 8.7%; that for `N#Cc1ccc(CN2CCCC(C(=O)NC3C4CC5CC(C4)CC3C5)C2)cc1` (stereo not drawn) [Example 163] was 100%.

On to `CC(C)(C)OC(=O)N1CCCC(C(=O)Nc2ccc3ncccc3n2)C1` (stereo not drawn) [Example 164], for which the inhibition at 0.1 µM (compound at 0.1 μM) is 11%. The same measure, in the same setting: with `C[C@H](N)CN1CCC[C@@H]1C(=O)NC1C2CC3CC(C2)CC1C3` (stereo partly drawn) [Example 176] the figure was 100%. With `CN(C(=O)C1COCCN1Cc1ccccc1)C1CCCCC1` (stereo not drawn) [Example 177], the Ki (human 11b-hsd-1) came to 18 nM. This compound had an inhibition at 0.1 µM (compound at 0.1 μM) of 92.2%.

For the compound `O=C(NC12CC3CC(CC(C3)C1)C2)C1COCCN1Cc1ccccc1` (stereo not drawn) [Example 178], the Ki (human 11b-hsd-1) amounted to 1 nM. Under “compound at 0.1 μM”, this compound gave an inhibition at 0.1 µM of 100%.

As to `N#Cc1cccc(CN2CCOCC2C(=O)NC23CC4CC(CC(C4)C2)C3)c1` (stereo not drawn) [Example 179], for the setting “human 11b-hsd-1”, the Ki worked out at 2 nM. At 0.1 µM the inhibition (compound at 0.1 μM) was 100%. Taken in the same sequence, the figures for `CN(C(=O)C1COCCN1CC1CCCCC1)C1CCCCC1` (stereo not drawn) [Example 180] were 32 nM and 72.1%.

Consider `O=C(NC12CC3CC(CC(C3)C1)C2)C1COCCN1CC1CCCCC1` (stereo not drawn) [Example 181], for which, for the setting “human 11b-hsd-1”, the Ki was determined as 1.8 nM. The inhibition at 0.1 µM (compound at 0.1 μM) is 100%. `O=C(NC12CC3CC(CC(C3)C1)C2)C1COCCN1CC1CCCC1` (stereo not drawn) [Example 183]: where the note is “human 11b-hsd-1”, the Ki stood at 2.1 nM. Besides, the inhibition at 0.1 µM (compound at 0.1 μM) worked out at 100%. Taken in the same sequence, the figures for `O=C(NC12CC3CC(CC(C3)C1)C2)C1COCCN1CC1CCOCC1` (stereo not drawn) [Example 184] were 3.2 nM and 100%. `O=C(NC12CC3CC(CC(C3)C1)C2)C1COCCN1CCC1CCOCC1` (stereo not drawn) [Example 185]: under “human 11b-hsd-1”, the Ki was 14 nM. Besides, where the note is “compound at 0.1 μM”, at 0.1 µM the inhibition was 91.3%. Taken in the same sequence, the figures for `CC1(C)CC(NC(=O)C2COCCN2Cc2ccccc2)CC(C)(C)C1` (stereo not drawn) [Example 186] were 1 nM and 100%. For the compound `CC1(C)CC(NC(=O)C2COCCN2Cc2cccc(C#N)c2)CC(C)(C)C1` (stereo not drawn) [Example 187], the Ki (human 11b-hsd-1) turned out to be 3 nM. The compound further had an inhibition at 0.1 µM (compound at 0.1 μM) of 100%. On to `CC1(C)CC(NC(=O)C2COCCN2CC2CCCCC2)CC(C)(C)C1` (stereo not drawn) [Example 188], for which the Ki (human 11b-hsd-1) came out at 1.7 nM. Also, the inhibition at 0.1 µM (compound at 0.1 μM) is 100%. For `CC1(C)CC(NC(=O)C2COCCN2Cc2cccc(OC(F)F)c2)CC(C)(C)C1` (stereo not drawn) [Example 189], the Ki (human 11b-hsd-1) was determined as 1.1 nM. For the setting “compound at 0.1 μM”, this compound came in with an inhibition at 0.1 µM of 100%. Regarding `CC1(C)CC(NC(=O)C2COCCN2CC2CCCC2)CC(C)(C)C1` (stereo not drawn) [Example 190], the Ki (human 11b-hsd-1) came to 1.1 nM. Under “compound at 0.1 μM”, this compound registered an inhibition at 0.1 µM of 100%. For `CN(C(=O)[C@H]1CCCN1Cc1ccc(Cl)cc1)C1CCCCC1` [Example 191] the same measures were 28 nM and 83.7%. Turning to `CN(C(=O)[C@@H]1CSCN1Cc1ccc(Cl)cc1)C1CCCCC1` [Example 192], the Ki stood at 9.6 nM. Moreover, under “0.1 μM compound”, 0.1 µM produced 100% inhibition. Taken in the same sequence, the figures for `CN(C(=O)C1CCCCN1Cc1ccc(Cl)cc1)C1CCCCC1` (stereo not drawn) [Example 193] were 14 nM and 100%. Take `CN(C(=O)[C@H]1CSCN1Cc1ccc(Cl)cc1)C1CCCCC1` [Example 194]: the Ki was determined as 25 nM. Under “0.1 μM compound”, this compound gave an inhibition at 0.1 µM of 86.2%.

On to `CC(C)CN1CSC[C@H]1C(=O)N(C)C1CCCCC1` [Example 195], for which the Ki was 13 nM. The inhibition at 0.1 µM (0.1 μM compound) stood at 100%. For `CC(C)CN1CSC[C@@H]1C(=O)N(C)C1CCCCC1` [Example 196] the same measures were 27 nM and 85.3%. For `CCC1CCCCN1C(=O)[C@H]1CCCN1Cc1ccc(Cl)cc1` (stereo partly drawn) [Example 197] the same measures were 50 nM and 73.2%. For `CCC1CCCCN1C(=O)[C@H]1CSCN1Cc1ccc(Cl)cc1` (stereo partly drawn) [Example 198] the same measures were 2.5 nM and 100%. On to `CCC1CCCCN1C(=O)C1CCCCN1Cc1ccc(Cl)cc1` (stereo not drawn) [Example 199], for which the Ki turned out to be 32 nM. Where the note is “0.1 μM compound”, the inhibition at 0.1 µM turned out to be 80.2%. For the compound `CCC1CCCCN1C(=O)[C@H]1CSCN1CC(C)C` (stereo partly drawn) [Example 200], the Ki was 36 nM. The compound further showed an inhibition at 0.1 µM (0.1 μM compound) of 91.6%. Consider `O=C(NC12CC3CC(CC(C3)C1)C2)[C@H]1CSCN1Cc1ccc(Cl)cc1` [Example 202], for which the Ki stood at 4.8 nM. Also, for the setting “0.1 μM compound”, the inhibition at 0.1 µM stood at 100%. For `CC(C)CN1CCC[C@@H]1C(=O)NC12CC3CC(CC(C3)C1)C2` [Example 205] the same measures were 3.17 nM and 100%.

For the compound `CC(C)CN1CCCCC1C(=O)NC12CC3CC(CC(C3)C1)C2` (stereo not drawn) [Example 206], the Ki worked out at 5.2 nM. The inhibition at 0.1 µM (0.1 μM compound) was found to be 100%. Taken in the same sequence, the figures for `CC(C)CN1C[C@H](O)C[C@H]1C(=O)NC12CC3CC(CC(C3)C1)C2` [Example 207] were 11 nM and 92.1%. As for `CC(C)CN1CSC[C@@H]1C(=O)NC12CC3CC(CC(C3)C1)C2` [Example 208], the Ki amounted to 1 nM. In addition, for the setting “0.1 μM compound”, the inhibition at 0.1 µM came out at 100%. Turning to `CC(C)CN1CC[C@H](O)[C@H]1C(=O)NC12CC3CC(CC(C3)C1)C2` [Example 211], the Ki came to 32 nM. Also, for the setting “0.1 μM compound”, the inhibition at 0.1 µM worked out at 80.2%. For `O=C(NCc1ccccc1F)[C@H]1CCCN1Cc1ccccc1` [Example 212], the Ki was determined as 85 nM. For the setting “0.1 μM compound”, the inhibition at 0.1 µM was found to be 77.6%. Taken in the same sequence, the figures for `O=C(NCc1ccc(Cl)cc1)[C@H]1CCCN1Cc1ccccc1` [Example 213] were 120 nM and 78%.

For the compound `O=C(NCc1ccc(F)cc1)[C@H]1CCCN1Cc1ccccc1` [Example 214], the Ki was determined as 59 nM. Under “0.1 μM compound”, this compound yielded an inhibition at 0.1 µM of 82.7%. As to `CCCN1CCC[C@@H]1C(=O)NCc1ccccc1` [Example 217], the Ki is 171 nM. Besides, the inhibition at 0.1 µM (0.1 μM compound) was determined as 84.6%. Taken in the same sequence, the figures for `CCCN1CCC[C@@H]1C(=O)NCc1ccc(OC)cc1` [Example 218] were 2500 nM and 91.1%. Taken in the same sequence, the figures for `CC(C)CN1CCC[C@@H]1C(=O)NCc1ccccn1` [Example 219] were 168 nM and 86.6%. For the compound `CC(C)CN1CCC[C@@H]1C(=O)NCc1ccccc1F` [Example 220], the Ki stood at 5.1 nM. The compound further yielded an inhibition at 0.1 µM (0.1 μM compound) of 96.7%. Consider `CC(C)CN1CCC[C@@H]1C(=O)NCc1ccc(Cl)cc1` [Example 221], for which the Ki was found to be 5.9 nM. The inhibition at 0.1 µM (0.1 μM compound) is 95.7%. For `CC(C)CN1CCC[C@@H]1C(=O)NCc1ccc(F)cc1` [Example 222] the same measures were 6.9 nM and 100%.

Turning to `CC(C)CN1CCC[C@@H]1C(=O)NCc1cccc(Cl)c1` [Example 223], the Ki turned out to be 26 nM. Besides, for the setting “0.1 μM compound”, testing at 0.1 µM gave an inhibition of 86.3%. For `O=C(NCc1ccccc1)[C@H]1CCCN1CC1CC1` [Example 224] the same measures were 189 nM and 90%. Taken in the same sequence, the figures for `O=C(NCc1ccc(F)cc1)[C@H]1CCCN1CC1CC1` [Example 225] were 153 nM and 86.2%. Taken in the same sequence, the figures for `O=C(NCc1ccccc1)[C@H]1CCCN1CC1CCCC1` [Example 226] were 22 nM and 82.2%. For the compound `O=C(NCc1ccc(Cl)cc1)[C@H]1CCCN1CC1CCCC1` [Example 227], the Ki amounted to 36 nM. For the same compound, 0.1 µM produced 80.3% inhibition (0.1 μM compound).

With `O=C(NCc1ccc(F)cc1)[C@H]1CCCN1CC1CCCC1` [Example 228], the Ki was determined as 54 nM. Under “0.1 μM compound”, this compound yielded an inhibition at 0.1 µM of 89.3%. For `O=C(NCc1ccccc1F)[C@H]1CCCN1CCC(F)(F)F` [Example 229] the same measures were 48 nM and 73.7%. For `O=C(NCc1ccc(F)cc1)[C@H]1CCCN1Cc1ccccc1Cl` [Example 232] the same measures were 47 nM and 71.5%.

With `O=C(NCc1ccc(F)cc1)[C@H]1CCCN1Cc1ccc(Cl)cc1` [Example 235], the Ki was 25 nM. In addition, the inhibition at 0.1 µM (0.1 μM compound) was determined as 83.8%.

In the case of `O=C(NCc1ccc(F)cc1F)[C@H]1CCCN1Cc1ccccc1` [Example 236], the Ki came to 66 nM. The compound further registered an inhibition at 0.1 µM (0.1 μM compound) of 76.8%. On to `CC(C)CN1CCC[C@@H]1C(=O)NCc1cccc(F)c1` [Example 237], for which the Ki was determined as 10.3 nM. Besides, at 0.1 µM the inhibition (0.1 μM compound) was 100%. Taken in the same sequence, the figures for `CC(C)CN1CCC[C@@H]1C(=O)NCc1ccc(F)cc1F` [Example 238] were 16.3 nM and 88.4%.

The values above are taken from US20050261290A1, “Novel compounds of proline and morpholine derivatives” (priority 2004, published 2005).
